# Literature values in PMC8542980, “The Scavenger Function of Liver Sinusoidal Endothelial Cells in Health and Disease” (Frontiers in Physiology, 2021).
# Read-outs that look alike come from different tables or passages of the source.
# B1: ^125I-TC-nidogen: nidogen labeled with 125I-tyramine cellobiose (protein, UniProt P14543 29-1247, looked up)
# Nidogen-1: LSRQELFPFGPGQGDLELEDGDDFVSPALELSGALRFYDRSDIDAVYVTTNGIIATSEPPAKESHPGLFPPTFGAVAPFLADLDTTDGLGKVYYREDLSPSITQRAAECVHRGFPEISFQPSSAVVVTWESVAPYQGPSRDPDQKGKRNTFQAVLASSDSSSYAIFLYPEDGLQFHTTFSKKENNQVPAVVAFSQGSVGFLWKSNGAYNIFANDRESVENLAKSSNSGQQGVWVFEIGSPATTNGVVPADVILGTEDGAEYDDEDEDYDLATTRLGLEDVGTTPFSYKALRRGGADTYSVPSVLSPRRAATERPLGPPTERTRSFQLAVETFHQQHPQVIDVDEVEETGVVFSYNTDSRQTCANNRHQCSVHAECRDYATGFCCSCVAGYTGNGRQCVAEGSPQRVNGKVKGRIFVGSSQVPIVFENTDLHSYVVMNHGRSYTAISTIPETVGYSLLPLAPVGGIIGWMFAVEQDGFKNGFSITGGEFTRQAEVTFVGHPGNLVIKQRFSGIDEHGHLTIDTELEGRVPQIPFGSSVHIEPYTELYHYSTSVITSSSTREYTVTEPERDGASPSRIYTYQWRQTITFQECVHDDSRPALPSTQQLSVDSVFVLYNQEEKILRYALSNSIGPVREGSPDALQNPCYIGTHGCDTNAACRPGPRTQFTCECSIGFRGDGRTCYDIDECSEQPSVCGSHTICNNHPGTFRCECVEGYQFSDEGTCVAVVDQRPINYCETGLHNCDIPQRAQCIYTGGSSYTCSCLPGFSGDGQACQDVDECQPSRCHPDAFCYNTPGSFTCQCKPGYQGDGFRCVPGEVEKTRCQHEREHILGAAGATDPQRPIPPGLFVPECDAHGHYAPTQCHGSTGYCWCVDRDGREVEGTRTRPGMTPPCLSTVAPPIHQGPAVPTAVIPLPPGTHLLFAQTGKIERLPLEGNTMRKTEAKAFLHVPAKVIIGLAFDCVDKMVYWTDITEPSIGRASLHGGEPTTIIRQDLGSPEGIAVDHLGRNIFWTDSNLDRIEVAKLDGTQRRVLFETDLVNPRGIVTDSVRGNLYWTDWNRDNPKIETSYMDGTNRRILVQDDLGLPNGLTFDAFSSQLCWVDAGTNRAECLNPSQPSRRKALEGLQYPFAVTSYGKNLYFTDWKMNSVVALDLAISKETDAFQPHKQTRLYGITTALSQCPQGHNYCSVNNGGCTHLCLATPGSRTCRCPDNTLGVDCIEQK
# modifications: 125I-tyramine cellobiose label
# notes: nidogen labeled with 125I-tyramine cellobiose
# Legend:
# [1] = test system: LSECs
# [2] = test system: endocytic hyaluronan receptor
# [3] = design: method as in Fraser et al., 1981; conditions: rabbit, ref Fraser et al., 1981
# [4] = design: method as in Fraser et al., 1984; conditions: human, ref Fraser et al., 1984
# [5] = rat, 1 μg, tail vein, ref Smedsrød and Einarsson, 1990
# [6] = ref Smedsrød et al., 1984, Laurent et al., 1986b
# [7] = rats, whole body autoradiography 10 min after injection, ref Fraser et al., 1985
molecule,measurement,setting,value
C[C@@H]1C[C@@H]([C@H](O)CC2CC(=O)NC(=O)C2)C(=O)[C@@H](C)C1 [cycloheximide],effect on the endocytosis of hyaluronan by cultured LSECs,"[1]; inhibitor of protein synthesis, ref McGary et al., 1989",no effect
Dextran sulfate,inhibition of the binding of hyaluronan by LSECs,"[2]; ref Raja et al., 1988, McGary et al., 1989",can also inhibit
^125I-tPA: 125I-labeled tissue plasminogen activator,% eliminated with t1/2α,[5],65%
same,% eliminated with t1/2β,[5],35%
same,"Decay of plasma/blood radioactivity, t1/2α",[5],0.6 min
same,"Decay of plasma/blood radioactivity, t1/2β",[5],6.4 min
chondroitin sulfate,inhibition of the uptake and binding of hyaluronan by LSECs,"[2]; ref Smedsrød et al., 1984",can inhibit
same,affinity of the rat receptor compared with hyaluronan of the same chain length,[2]; [6],threefold greater affinity
chondroitin sulfate [[^3H]-chondroitin sulfate (CS)],site of main uptake,"rat, clearance rate not examined, ref Smedsrød et al., 1985b",Clearance rate not examined but the main uptake was in LSECs
heparan sulfate,affinity of the rat receptor,[2]; [6],no affinity
heparin [listing 1 of 2 here],"Decay of plasma/blood radioactivity, t1/2","rat, 0.1 IU/kg, tail vein, ref Øie et al., 2008",1.71 min
same,recovered in liver,"rat, after 15 min, ref Øie et al., 2008",71%
heparin [listing 2 of 2 here],affinity of the rat receptor,[2]; [6],no affinity
hyaluronan,uptake in liver,"rat, at 30 min after injection, ref Dahl et al., 1988",79%
same,"Decay of plasma/blood radioactivity, t1/2α","rat, tail vein, MW = 2.5 × 10^5, ref Dahl et al., 1988",0.9 min
hyaluronan [[^3H]-hyaluronan],injected radioactivity found in Kupffer cells,[7],none
same,injected radioactivity found in the cytoplasm of LSECs,[7],approximately 90%
same,"Decay of plasma/blood radioactivity, t1/2","[3]; 30–32 μg, marginal ear vein",2.5 to 4.5 min
same,uptake in liver,[3]; at 19 min after injection,88%
same,time to appearance of degradation products in the supernatant,"[1]; LSEC cultures, 37°C, after addition of ligand, ref Smedsrød et al. (1984)",≤ 30 min
same,time to steady state levels of internalized ligand and degradation products,"[1]; LSEC cultures, 37°C, into the incubation, ref Smedsrød et al. (1984)",60 to 75 min
same,"Decay of plasma/blood radioactivity, t1/2","[4]; 60–130 μg, cubital vein",2.6 to 5.5 min
same,eliminated from blood,[4]; after 10 min,90%
hyaluronan [hyaluronan of 6.4 × 10^6 Da],Kd,"[2]; endocytic hyaluronan receptor of LSECs, ref Laurent et al., 1986b, read-out: dissociation constant",9 pM
B1,recovered in liver,"rat, after 1 h, ref Smedsrød et al., 1989",78%
same,"Decay of plasma/blood radioactivity, t1/2","rat, trace amounts, tail vein, ref Smedsrød et al., 1989",2 to 3 min
